# Measurements from patent US20070155659A1, “Use of somatostatin or one of its analogues for preparing a medicament intended to regulate the ovarian follicular reserve in non-menopausal women” (Societe de Conseils de Recherches et D'Application, priority 2003, published 2007).
# Where a SMILES comes first, the peptide text is derived from it. [ ]: non-standard residue; d: D form. Tic = O=C(O)[C@@H]1Cc2ccccc2CN1; Abu = CC[C@H](N)C(=O)O
# Experiments:
# [1] = tested on: primordial follicles of ovarian cortex; assay: Culture of ewe ovarian cortex fragments for 10 days: start of growth of primordial follicles; type: cell-based; conditions: for start of growth of the primordial follicles: 10 days culture, vs control fragments; for number of primordial follicles over time / number of primary follicles: D0-D10
# Experimental: Ovaries of adult ewes are collected immediately after slaughter. The ovaries are placed in an organ transport medium without serum (X-vivo, Bio Whittaker, Walkersville, Md., USA) at 10° C. and transported to the laboratory. Approximately 1 h after removal, the cortex is isolated from the medulla then fractionated into slices of 2 mm thickness (1 cm^2, average weight of 212 mg) after rinsing in new X-vivo. The cortex fragments are cultured in an oven under 5% oxygen for 10 days in well plates in the presence of DMEM. The medium is changed every 2 days.
# The procedure used is the same as for Example 1, except that the somatostatin is replaced with one of its agonist analogues, namely the synthetic peptide of formula c[Tic-Tyr-DTrp-Lys-Abu-Phe] (hereafter AG1 peptide).
# The procedure used is the same as for Example 1, except that the somatostatin is replaced by one of its antagonist analogues, namely the synthetic peptide of formula Cpa-c(DCys-3-Pal-DTrp-NMeLys-Thr-Cys)-2-Nal-NH2 (hereafter ANT1 peptide).
# [2] = Envisaged case: patient with polycystic ovary syndrome treated with lanreotide acetate; type: in vivo, women; conditions: 120 mg/month
# [3] = women, in vivo; cited from earlier work
# [4] = tested on: granulosa cells from preovulatory follicles; conditions: women, in vitro; cited from earlier work
# granulosa cells [5] = conditions: in vitro, model of granulosa cells; cited from earlier work
# [6] = tested on: pituitary cells producing LH and FSH; preovulatory follicles; conditions: rats, in vivo administration; cited from earlier work
# preovulatory oocyte = conditions: pigs; cited from earlier work
# granulosa cells [7] = conditions: pig granulosa cells; cited from earlier work
# [8] = co-administered with FSH; infertile patients with polycystic ovary syndrome; cited from earlier work
compound,measurement,setting,value
C[C@H](N)C(=O)NCC(=O)N[C@H]1CSSC[C@@H](C(=O)O)NC(=O)[C@H](CO)NC(=O)[C@H]([C@@H](C)O)NC(=O)[C@H](Cc2ccccc2)NC(=O)[C@H]([C@@H](C)O)NC(=O)[C@H](CCCCN)NC(=O)[C@H](Cc2c[nH]c3ccccc23)NC(=O)[C@H](Cc2ccccc2)NC(=O)[C@H](Cc2ccccc2)NC(=O)[C@H](CC(N)=O)NC(=O)[C@H](CCCCN)NC1=O [SST14],start of growth of the primordial follicles,"[1]; SST14 10^−9 M to 10^−6 M, FIGS. 1 and 2",very significantly inhibits
same,number of primordial follicles over time,"[1]; SST14 10^−9 M to 10^−6 M, FIG. 1",maintenance over time
same,number of primary follicles,"[1]; SST14 10^−9 M to 10^−6 M, FIG. 2",absence of increase
CC(C)[C@@H]1NC(=O)[C@H](CCCCN)NC(=O)[C@@H](Cc2c[nH]c3ccccc23)NC(=O)[C@H](Cc2ccc(O)cc2)NC(=O)[C@@H](NC(=O)[C@H](N)Cc2ccc3ccccc3c2)CSSC[C@@H](C(=O)N[C@H](C(N)=O)[C@@H](C)O)NC1=O [lanreotide acetate],ovarian volume and number of antral follicles (ultrasound),[2]; 4th month of treatment,reduction
same,pregnancy test,[2]; 8th month of treatment,positive
same,periods,[2]; after 3 months of treatment,spontaneous periods
C[C@H](N)C(=O)NCC(=O)N[C@H]1CSSC[C@@H](C(=O)O)NC(=O)[C@H](CO)NC(=O)[C@H]([C@@H](C)O)NC(=O)[C@H](Cc2ccccc2)NC(=O)[C@H]([C@@H](C)O)NC(=O)[C@H](CCCCN)NC(=O)[C@H](Cc2c[nH]c3ccccc23)NC(=O)[C@H](Cc2ccccc2)NC(=O)[C@H](Cc2ccccc2)NC(=O)[C@H](CC(N)=O)NC(=O)[C@H](CCCCN)NC1=O [SST],"secretion of LH by the pituitary, production of androgens and IGF-1 serum levels",[3],capable of reducing
same,serum levels of IGF-BP3,[3],increases
same,synthesis of IGF-BP1 and of progesterone,[4],inhibiting
same,"aromatase and production of progesterone, stimulated by FSH",granulosa cells [5],inhibits
same,number of pituitary cells producing LH and FSH and number of preovulatory follicles in the ovary,[6],seems to reduce
same,nuclear maturation of the preovulatory oocyte,preovulatory oocyte,seems to inhibit
same,increase in cAMP induced by LH and forskolin,granulosa cells [7],inhibits
same,follicle growth induced by the administration of FSH,[8],not however accompanied by a significant impact
"CC[C@@H]1NC(=O)[C@H](CCCCN)NC(=O)[C@@H](Cc2c[nH]c3ccccc23)NC(=O)[C@H](Cc2ccc(O)cc2)NC(=O)[C@@H]2Cc3ccccc3CN2C(=O)[C@H](Cc2ccccc2)NC1=O [AG1 peptide, c[Tic-Tyr-DTrp-Lys-Abu-Phe]] (cyclo([Tic]Y[dW]K[Abu]F))",start of growth of the primordial follicles,"[1]; AG1 peptide 10^−9 M, FIG. 4",very significantly inhibits
same,number of primary follicles,"[1]; AG1 peptide 10^−9 M, FIG. 4",absence of increase
same,number of primordial follicles over time,"[1]; AG1 peptide 10^−9 M, FIG. 4",maintenance over time
